Reference: BindingDB's records for doi:10.1021/jm970459c (Cambridge Neuroscience, 1998)
Where a name gives a salt, the structure may show the parent alone.

Target: Sigma receptor (Cavia porcellus)
Assay: Binding assay for the sigma receptor sites is performed by utilizing [3H]N,N-di-o-tolylguanidine ([3H]DTG) and guinea pig brain membrane suspensions

Structure (SMILES) | IC50 [nM]
CCc1cccc(N(C)C(N)=Nc2cc(Br)cc([S+](C)[O-])c2Br)c1 (configuration not stated) | 1950
CCc1cccc(N(C)C(N)=Nc2cc(SC)cc(CC)c2Br)c1 | 299
CCc1cccc(N(C)C(N)=Nc2cc(Br)cc(S(C)(=O)=O)c2Br)c1 [N'-(2,5-Dibromo-3-methanesulfonyl-phenyl)-N-(3-ethyl-phenyl)-N-methyl-guanidine; hydrochloride] | 3380
CCc1cccc(N(C)C(N)=Nc2cc(Br)cc(C(F)(F)F)c2Br)c1 [N'-(2,5-Dibromo-3-trifluoromethyl-phenyl)-N-(3-ethyl-phenyl)-N-methyl-guanidine; hydrochloride] | 224
CCc1cccc(N(C)C(N)=Nc2cc(Cl)cc(SC)c2Cl)c1 [N'-(2,5-Dichloro-3-methylsulfanyl-phenyl)-N-(3-ethyl-phenyl)-N-methyl-guanidine; hydrochloride] | 130
CCc1cccc(N(C)C(N)=Nc2cc(CC)cc(CC)c2Br)c1 [N'-(2-Bromo-3,5-diethyl-phenyl)-N-(3-ethyl-phenyl)-N-methyl-guanidine; hydrochloride] | 203
CCc1cccc(N(C)C(N)=Nc2cc(C(F)(F)F)cc(CC)c2Br)c1 [N'-(2-Bromo-3-ethyl-5-trifluoromethyl-phenyl)-N-(3-ethyl-phenyl)-N-methyl-guanidine; hydrochloride] | 205
CCc1cccc(N(C)C(N)=Nc2cc(CC)cc(SC)c2Br)c1 [N'-(2-Bromo-5-ethyl-3-methylsulfanyl-phenyl)-N-(3-ethyl-phenyl)-N-methyl-guanidine; hydrochloride] | 180
CCc1cccc(N(C)C(N)=Nc2cc(CC)cc(OC(F)(F)F)c2Br)c1 [N'-(2-Bromo-5-ethyl-3-trifluoromethoxy-phenyl)-N-(3-ethyl-phenyl)-N-methyl-guanidine; hydrochloride] | 261
CCc1cccc(N(C)C(N)=Nc2cc(CC)cc(C(F)(F)F)c2Br)c1 [N'-(2-Bromo-5-ethyl-3-trifluoromethyl-phenyl)-N-(3-ethyl-phenyl)-N-methyl-guanidine; hydrochloride] | 221
CCc1cccc(N(C)C(N)=Nc2ccccc2Br)c1 [N'-(2-Bromo-phenyl)-N-(3-ethyl-phenyl)-N-methyl-guanidine; hydrochloride] | 125
CCc1cccc(N(C)C(N)=Nc2cc(C(F)(F)F)cc(CC)c2Cl)c1 [N'-(2-Chloro-3-ethyl-5-trifluoromethyl-phenyl)-N-(3-ethyl-phenyl)-N-methyl-guanidine; hydrochloride] | 115
CCc1cccc(N(C)C(N)=Nc2cc(CC)cc(SC)c2Cl)c1 [N'-(2-Chloro-5-ethyl-3-methylsulfanyl-phenyl)-N-(3-ethyl-phenyl)-N-methyl-guanidine; hydrochloride] | 178
CCc1cccc(N(C)C(N)=Nc2cc(CC)cc(C(F)(F)F)c2Cl)c1 [N'-(2-Chloro-5-ethyl-3-trifluoromethyl-phenyl)-N-(3-ethyl-phenyl)-N-methyl-guanidine; hydrochloride] | 200
CCc1cccc(N(C)C(N)=Nc2cc(CC)cc(CC)c2F)c1 [N'-(3,5-Diethyl-2-fluoro-phenyl)-N-(3-ethyl-phenyl)-N-methyl-guanidine; hydrochloride] | 113
CCc1cccc(N(C)C(=N)N(C)c2cc(Br)ccc2Br)c1 [N-(2,5-Dibromo-phenyl)-N'-(3-ethyl-phenyl)-N,N'-dimethyl-guanidine; hydrochloride] | 381
CCc1cccc(N(C)C(N)=Nc2ccccc2C(C)C)c1 [N-(3-Ethyl-phenyl)-N'-(2-isopropyl-phenyl)-N-methyl-guanidine; hydrochloride] | 362
CCc1cccc(N(C)C(N)=Nc2cccc(SC)c2)c1 [N-(3-Ethyl-phenyl)-N-methyl-N'-(3-methylsulfanyl-phenyl)-guanidine; hydrochloride] | 164

Further lines, results first:

IC50 [nM] | Structure (SMILES)
97 | CCc1cccc(N(C)C(N)=Nc2cccc(Cl)c2Cl)c1 [N'-(2,3-Dichloro-phenyl)-N-(3-ethyl-phenyl)-N-methyl-guanidine; hydrochloride]
40 | CCc1cccc(N(C)C(N)=Nc2cc(Br)cc(CC)c2Br)c1 [N'-(2,5-Dibromo-3-ethyl-phenyl)-N-(3-ethyl-phenyl)-N-methyl-guanidine; hydrochloride]
113 | CCc1cccc(N(C)C(N)=Nc2cc(Br)cc(OC(F)(F)F)c2Br)c1 [N'-(2,5-Dibromo-3-trifluoromethoxy-phenyl)-N-(3-ethyl-phenyl)-N-methyl-guanidine; hydrochloride]
110 | CCc1cccc(N(C)C(N)=Nc2cc(Cl)cc(C(F)(F)F)c2Cl)c1 [N'-(2,5-Dichloro-3-trifluoromethyl-phenyl)-N-(3-ethyl-phenyl)-N-methyl-guanidine; hydrochloride]
29 | CCc1cccc(N(C)C(N)=Nc2cc(Cl)ccc2Cl)c1 [N'-(2,5-Dichloro-phenyl)-N-(3-ethyl-phenyl)-N-methyl-guanidine; hydrochloride]
112 | CCc1cccc(N(C)C(N)=Nc2cc(CC)cc(CC)c2Cl)c1 [N'-(2-Chloro-3,5-diethyl-phenyl)-N-(3-ethyl-phenyl)-N-methyl-guanidine; hydrochloride]
45 | CCc1cccc(N(C)C(N)=Nc2cc(C)cc(CC)c2Cl)c1 [N'-(2-Chloro-3-ethyl-5-methyl-phenyl)-N-(3-ethyl-phenyl)-N-methyl-guanidine; hydrochloride]
72 | CCc1cccc(N(C)C(N)=Nc2ccccc2Cl)c1 [N'-(2-Chloro-phenyl)-N-(3-ethyl-phenyl)-N-methyl-guanidine; hydrochloride]
39 | CCc1cccc(N(C)C(N)=Nc2ccc(Cl)c(Cl)c2)c1 [N'-(3,4-Dichloro-phenyl)-N-(3-ethyl-phenyl)-N-methyl-guanidine; hydrochloride]
40 | CCc1cccc(N(C)C(N)=Nc2cccc(Br)c2)c1 [N'-(3-Bromo-phenyl)-N-(3-ethyl-phenyl)-N-methyl-guanidine; hydrochloride]
44 | CCc1cccc(N(C)C(N)=Nc2cccc(Cl)c2)c1 [N'-(3-Chloro-phenyl)-N-(3-ethyl-phenyl)-N-methyl-guanidine; hydrochloride]
46 | CCc1cccc(N(C)C(N)=Nc2ccc(Cl)cc2)c1 [N'-(4-Chloro-phenyl)-N-(3-ethyl-phenyl)-N-methyl-guanidine; hydrochloride]
13 | CCc1cccc(NC(N)=Nc2cccc(Cl)c2Cl)c1 [N-(2,3-Dichloro-phenyl)-N'-(3-ethyl-phenyl)-guanidine; hydrochloride]
37 | CCc1cccc(NC(N)=Nc2ccc(Cl)cc2Cl)c1 [N-(2,4-Dichloro-phenyl)-N'-(3-ethyl-phenyl)-guanidine; hydrochloride]
12 | CCc1cccc(NC(N)=Nc2cc(Cl)ccc2Cl)c1 [N-(2,5-Dichloro-phenyl)-N'-(3-ethyl-phenyl)-guanidine; hydrochloride]
14 | CCc1cccc(NC(N)=Nc2c(Cl)cccc2Cl)c1 [N-(2,6-Dichloro-phenyl)-N'-(3-ethyl-phenyl)-guanidine; hydrochloride]
19 | CCc1cccc(NC(N)=Nc2ccccc2CC)c1 [N-(2-Ethyl-phenyl)-N'-(3-ethyl-phenyl)-guanidine; hydrochloride]
32 | CCc1cccc(NC(N)=Nc2ccc(Cl)c(Cl)c2)c1 [N-(3,4-Dichloro-phenyl)-N'-(3-ethyl-phenyl)-guanidine; hydrochloride]
70 | CCc1cccc(NC(N)=Nc2cc(Cl)cc(Cl)c2)c1 [N-(3,5-Dichloro-phenyl)-N'-(3-ethyl-phenyl)-guanidine; hydrochloride]
8 | CCc1cc(CC)cc(N=C(N)Nc2cccc(CC)c2)c1 [N-(3,5-Diethyl-phenyl)-N'-(3-ethyl-phenyl)-guanidine; hydrochloride]
10 | CCc1cccc(NC(N)=Nc2cccc(Br)c2)c1 [N-(3-Bromo-phenyl)-N'-(3-ethyl-phenyl)-guanidine; hydrochloride]
27 | CCc1cccc(NC(N)=Nc2cccc(Cl)c2)c1 [N-(3-Chloro-phenyl)-N'-(3-ethyl-phenyl)-guanidine; hydrochloride]
21 | CCc1cccc(NC(N)=Nc2ccccc2C(C)C)c1 [N-(3-Ethyl-phenyl)-N'-(2-isopropyl-phenyl)-guanidine; hydrochloride]
11 | CCc1cccc(NC(N)=Nc2ccccc2C)c1 [N-(3-Ethyl-phenyl)-N'-o-tolyl-guanidine; hydrochloride]
